Measured values reported in PMC10244169, “Psychedelics promote plasticity by directly binding to BDNF receptor TrkB” (Nature Neuroscience, 2023).
Counter-ions that a name gives are not always drawn. Like-named read-outs stand apart in the source and are kept apart here.

Assays:
TrkB [1] = target: T1, TrkB (Rattus norvegicus, UniProt Q63604); experiment: biochemical; type: binding; conditions: for Bmax (specific binding with Hill slope, best-fit) / h (Hill slope, best-fit): ext fig 1f, competition curve, n=5; for displacement of ^3H-LSD from TrkB: 1 nM to 10 µM of drug
T1 construct: expressed in transfected cells; host or cells: HEK293T
T1 sequence (Q63604 32-821): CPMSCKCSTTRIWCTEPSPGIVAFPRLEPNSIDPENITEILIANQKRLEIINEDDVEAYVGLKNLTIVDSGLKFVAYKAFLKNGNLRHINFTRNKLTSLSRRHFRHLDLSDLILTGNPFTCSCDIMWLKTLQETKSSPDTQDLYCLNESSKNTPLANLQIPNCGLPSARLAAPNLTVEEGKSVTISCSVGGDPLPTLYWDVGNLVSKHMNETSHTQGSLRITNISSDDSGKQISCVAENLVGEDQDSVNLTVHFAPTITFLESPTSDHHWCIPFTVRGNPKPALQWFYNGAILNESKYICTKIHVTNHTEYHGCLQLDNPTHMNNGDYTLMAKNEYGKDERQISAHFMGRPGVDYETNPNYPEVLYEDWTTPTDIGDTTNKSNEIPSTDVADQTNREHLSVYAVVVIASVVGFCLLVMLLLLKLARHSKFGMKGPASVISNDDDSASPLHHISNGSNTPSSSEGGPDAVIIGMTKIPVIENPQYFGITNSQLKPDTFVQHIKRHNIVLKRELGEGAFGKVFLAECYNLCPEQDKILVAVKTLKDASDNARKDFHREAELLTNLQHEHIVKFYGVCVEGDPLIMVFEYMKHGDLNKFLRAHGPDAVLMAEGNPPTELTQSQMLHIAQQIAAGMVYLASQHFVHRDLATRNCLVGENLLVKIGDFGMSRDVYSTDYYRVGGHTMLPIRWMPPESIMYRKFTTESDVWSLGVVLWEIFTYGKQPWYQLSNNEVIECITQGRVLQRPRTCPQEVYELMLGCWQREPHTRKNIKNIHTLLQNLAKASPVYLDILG

[2] = test system: spine density of neuronal cultures; experiment: Spinogenesis in mature neuronal cultures (WT and Y433F^+/−); type: cell-based, mouse; set-up: 6d: Mean (spinogenesis, spine density) / 6e: Mean (spinogenesis, spine density): unit not given here
Procedure: Spinogenesis experiments were performed similarly to previous studies[12],[13] with modifications. […] In a separate set of experiments to study the effects of extracellular BDNF and 5-HT2A activation, cultures were also pretreated for 10 min with TrkB.FC (200 ng ml^−1) or M100907 (100 nM), respectively. TrkB.FC and M100907 remained in the medium for the rest of the experiment. Twenty-four hours later, coverslips were fixed with 4% PFA, washed with PBS, incubated with blocking buffer (0.1% Triton X-100, 0.05% Tween-20, 10% normal donkey serum, 1% BSA and 0.1% gelatin in PBS) for 1 h at room temperature and then overnight with rabbit anti-MAP2 (Invitrogen, PA5-17646; 1:100) primary antibody at 4 °C. After washing with PBS, coverslips were incubated with CF568-conjugated donkey anti-rabbit (Biotium, 20098; 1:500) for 1 h at room temperature. Another round of PBS washes was followed by incubation with Alexa Fluor 647-conjugated phalloidin (Invitrogen, A22287; 1:40) overnight at 4 °C. Next, coverslips were briefly washed in phosphate buffer (PB) and mounted on slides with ProLong Glass Antifade Mountant (Invitrogen, P36982). We used a Zeiss LSM 880 confocal microscope with an AiryScan GaAsP detector equipped with a PlanApochromat 63×/1.4 NA objective. We used the BP 495–550 + LP 570 AiryScan filter and Zen Black in super-resolution mode for image acquisition. Pinhole size was adapted accordingly, and frame size was set to optimal. Sensors were set to continuous adjustment across the imaging sessions to ensure optimal sensor alignment and signal detection. Raw data were processed into AiryScan images with the autofilter mode on using Zen Blue. Finally, image analysis was performed in ImageJ by experimenters blinded for treatment and genotype. Spines were quantified in 15-µm-long dendrite sections.

TrkB (WT) dimerization = target: T2, TrkB (WT) dimerization (Rattus norvegicus, UniProt Q63604); experiment: Split-luciferase PCA of TrkB dimerization in N2a cells; type: cell-based; conditions: for Group mean (Mean 2; Vehicle:Vehicle = 100), fig 4e: n=48
T2 construct: expressed in transfected cells; host or cells: N2a
T2 sequence (Q63604 32-821): as above
T2 sequence (Q63604 32-821): as above
Procedure: Ketanserin, M100907 and TRKB.FC were added to the media 10 min before treatment. The PCA method was performed as previously described[11],[75],[76]. Split humanized Gaussia princeps luciferase (hGLuc) was cloned on the C-terminus of the reporter proteins TrkB (WT and Y433F) and lipid raft Fyn. If the reporter proteins that carry complementary halves of the luciferase interact, the enzyme can refold in its functional conformation and, upon addition of its substrate, produce luminescence proportionally to the amount of reporter proteins interacting at a given time. N2a cells were seeded in 96-well plates with opaque walls and transparent bottom (PerkinElmer, ViewPlate 96). Cells were transfected with Lipofectamine 2000 according to the manufacturer’s instructions 24 h post-plating with the PCA pair plasmids: phGLuc(1C)-TrkB(WT) or the mutant phGLuc(1C)-TrkB(Y433F) and phGLuc(2 C)-TrkB(WT) for the dimerization experiments; phGLuc(1C)-lipid raft Fyn and phGLuc(2C)-TrkB(WT) or phGLuc(2C)-TrkB(Y433F) for the lipid raft localization experiments. Forty-eight hours post transfection, cells were treated (40 min, 37 °C) in phenol red-free Dulbecco’s modified Eagle medium without serum. […] The PCA signal was detected with the substrate for the luciferase, native coelenterazine, which was injected into each well directly in the plate reader at a final concentration of […].

[3] = test system: dendritic arbor complexity of neuronal cultures; experiment: Dendritogenesis (Sholl analysis) in neuronal cultures (WT and Y433F^+/−); type: cell-based, mouse; conditions: for Sholl analysis, Mean at distance from soma: fig 6j
Procedure: In a separate set of experiments to study the effects of extracellular BDNF and 5-HT2A activation, cultures were also pretreated for 10 min with TrkB.FC (200 ng ml^−1) or M100907 (100 nM), respectively. Similar to treatment with the psychedelics, TrkB.FC and M100907 pretreatments were administered in cumulative doses and remained in the medium for the rest of the experiment. At DIV7, neurons were pre-incubated for 1 h with […] MgCl2 to prevent excitotoxicity, then neurons were transfected for the heterologous expression of mCherry. To minimize any possible interference of the transfection protocol upon the drug effect, transfection was done in the morning while treatment with psychedelics was always added in the evening. Twenty-four hours after transfection, neurons were fixed with 4% PFA for 20 min at room temperature, washed in PBS-T, blocked for 30 min with 3% BSA in PBS-T and incubated with chicken anti-MAP2 (Abcam, ab5392; 1:5,000, 1 h, room temperature). Then, coverslips were washed in PBS-T and incubated with Alexa Fluor 647-conjugated antibody goat anti-chicken (Invitrogen, A-21449; 1:1,000, 1 h, room temperature). Next, coverslips were washed in PBS-T and MilliQ water, and mounted in Dako fluorescence mounting medium (Agilent, S302380-2). Ten optical sections with a Z-step of 1.3 μm were acquired using a Zeiss LSM 710 confocal microscope with a LCI Plan/Neofluar 25×/0.8 lmm Korr DIC M27 objective. In the mCherry channel, the center of the soma was manually assigned and the number of dendritic intersections at fixed distances (every 5 μm) from the soma was automatically counted using the Sholl analysis plugin of ImageJ.

TrkB [4] = target: T1, TrkB; experiment: Biotin-labeled BDNF binding to immunoprecipitated TrkB; conditions: ext fig 1e, n=4
Procedure: Binding assays were performed as previously described with minor modifications. […] Samples from mouse embryo (E18) brains were also lysed, vortexed, sonicated and centrifuged for binding assays. Plates were then washed with PBS. […] For the competition binding assays with biotinylated R,R-HNK, the amino-biotinylation of R,R-HNK was performed using a commercial kit (Thermo Scientific, EZ-Link NHS-PEG4 Biotinylation Kit, 21455) and the reaction monitored by MS. A mixture of biotinylated R,R-HNK (10 µM) and unlabeled compounds (1 pM to 10 µM) in PBS was added to the 96-well plates containing the immunoprecipitated TrkB and incubated for 1 h at room temperature. […] Luminescence was determined via streptavidin conjugated with horseradish peroxidase (HRP; Thermo Fisher Scientific, 21126; 1:5,000, 1 h at room temperature) in reaction with the Pierce ECL substrate (Thermo Fisher Scientific, 32106). Luminescence from blank wells that contained all reagents but the sample lysates was used to determine nonspecific binding. To obtain the binding curves, results from binding assays were fitted to the equation of specific binding with Hill slope from GraphPad Prism 9.2. To calculate koff values, results were fitted to the equation of dissociation of one phase exponential decay from GraphPad Prism 9.2.

eGFP-tagged TrkB (WT) = target: T3, eGFP-tagged TrkB (WT) (Rattus norvegicus, UniProt Q63604); experiment: Microscale thermophoresis (MST) in HEK293T lysates; type: binding; conditions: native (WT) TrkB
T3 construct: expressed in transfected cells; host or cells: HEK293T
T3 sequence (Q63604 32-821): as above
Procedure: MST experiments were performed using the Monolith NT.115 (Blue/Red) instrument (NanoTemper Technologies). Lysates of HEK293T cells expressing GFP-tagged TrkB (WT, Y433F, TrkA.TM) were lysed, vortexed, sonicated and centrifuged 24 h after transient transfection and used as a source of fluorescently labeled TrkB, similarly to previously described protocols[11],[45]–[47]. The advantage of this approach is the possibility of studying the proteins in close-to-native conditions. However, the presence of other proteins, lipids, nucleic acids and other components of crude cell lysates can alter the diffusion of biomolecules and therefore binding affinities. High viscosity and background signal typically results in the affinity values being orders of magnitude […] than those of more traditional binding assays. […] The measurements were performed in premium coated capillaries (NanoTemper Technologies, MO-K025) using a LED source with 470 nm and 50% infrared-laser power at 25 °C. Analysis was performed using MO Affinity Analysis 2.3. Results were fitted to specific binding with Hill slope equations from GraphPad Prism 9.2.

[5] = TrkB.FC 200 ng ml^−1 or M100907 100 nM
[6] = treatment alone (other factor Vehicle)

N[C@@]1(c2ccccc2Cl)CCC[C@@H](O)C1=O [R,R-HNK, 2R,6R-hydroxynorketamine]
Ki (TrkB [1]; displacement of ^3H-LSD, read-out: Ki): 166 ± 21.1 nM
Bmax (specific binding with Hill slope, best-fit) (TrkB [1]): 107.6
h (Hill slope, best-fit) (TrkB [1]): -0.8819

CN(C)CCCN1c2ccccc2Sc2ccc(Cl)cc21 [chlorpromazine]
displacement of ^3H-LSD from TrkB (TrkB [1]): fail to displace ^3H-LSD
Fit status, one phase exponential decay (TrkB [1]; ext fig 1h): Interrupted
K (one phase exponential decay, best-fit) (TrkB [1]; ext fig 1h): 6.169
Plateau (one phase exponential decay, best-fit) (TrkB [1]; ext fig 1h): 142318
Span (one phase exponential decay, best-fit) (TrkB [1]; ext fig 1h): -142224

CN1C(=O)CN=C(c2ccccc2)c2cc(Cl)ccc21 [diazepam]
displacement of ^3H-LSD from TrkB (TrkB [1]): fail to displace ^3H-LSD
Fit status, one phase exponential decay (TrkB [1]; ext fig 1h): Not converged

CNC1(c2ccccc2Cl)CCCCC1=O (centres unmarked) [ketamine, Ketamine hydrochloride]
Ki (TrkB [1]): 20800 ± 8860 nM
Bmax (specific binding with Hill slope, best-fit) (TrkB [1]): 98.59
h (Hill slope, best-fit) (TrkB [1]): -0.5468

TrkB.FC: TrkB receptor bodies that sequester extracellular BDNF
effect of pretreatment on spinogenic effect of LSD [2, 5]: prevented the spinogenic effect of LSD
6e: Mean Diff. (Vehicle:Vehicle vs. treatment), Bonferroni's multiple comparisons test ([2]; substance alone (with vehicle)): -0.45
6e: Mean (spinogenesis, spine density) ([2]; substance alone (with vehicle), Vehicle:Vehicle mean 7.05): 7.5
effect of pretreatment on LSD- and BDNF-induced TrkB dimerization (TrkB (WT) dimerization; ketanserin 100 nM, M100907 100 nM or TrkB.FC 200 ng ml^−1, 10 min before): prevents the effects of LSD and BDNF on TrkB dimerization
Group mean (Mean 2; Vehicle:Vehicle = 100), fig 4e (TrkB (WT) dimerization; [6]): 100
effect of pretreatment on LSD effects on dendritogenesis [3, 5]: prevented LSD effects on dendritogenesis
dendritic arbor complexity, Mean Diff. (Vehicle:vehicle vs. group) ([3]; fig 6i, Bonferroni's multiple comparisons test): 9.033
dendritic arbor complexity, group mean (Mean 2) ([3]; fig 6i, treatment:pretreatment groups, Vehicle:vehicle mean 69.72): 60.69
Sholl analysis, Mean at distance from soma ([3]; distance from soma 10 µm): 6.276
Sholl analysis, Mean at distance from soma ([3]; distance from soma 15 µm): 6.586
Sholl analysis, Mean at distance from soma ([3]; distance from soma 20 µm): 5.414
Sholl analysis, Mean at distance from soma ([3]; distance from soma 25 µm): 4.966
Sholl analysis, Mean at distance from soma ([3]; distance from soma 30 µm): 4.621
Sholl analysis, Mean at distance from soma ([3]; distance from soma 35 µm): 3.655
Sholl analysis, Mean at distance from soma ([3]; distance from soma 40 µm): 3.414
Sholl analysis, Mean at distance from soma ([3]; distance from soma 45 µm): 2.655
Sholl analysis, Mean at distance from soma ([3]; distance from soma 50 µm): 2.724
Sholl analysis, Mean at distance from soma ([3]; distance from soma 55 µm): 2.759
Sholl analysis, Mean at distance from soma ([3]; distance from soma 60 µm): 2.2069
Sholl analysis, Mean at distance from soma ([3]; distance from soma 65 µm): 2.241
Sholl analysis, Mean at distance from soma ([3]; distance from soma 70 µm): 2.172
Sholl analysis, Mean at distance from soma ([3]; distance from soma 75 µm): 1.897
Sholl analysis, Mean at distance from soma ([3]; distance from soma 80 µm): 1.862
Sholl analysis, Mean at distance from soma ([3]; distance from soma 85 µm): 2.034
Sholl analysis, Mean at distance from soma ([3]; distance from soma 90 µm): 1.931
Sholl analysis, Mean at distance from soma ([3]; distance from soma 95 µm): 1.621
Sholl analysis, Mean at distance from soma ([3]; distance from soma 100 µm): 1.655

B1: BDNF: Brain-derived neurotrophic factor (protein, UniProt P23560 19-247, looked up)
Neurotrophic factor BDNF …: APMKEANIRGQGGLAYPGVRTHGTLESVNGPKAGSRGLTSLADTFEHVIEELLDEDQKVRPNEENNKDADLYTSRVMLSSQVPLEPPLLFLLEEYKNYLDAANMSMRVRRHSDPARRGELSVCDSISEWVTAADKKTAVDMSGGTVTVLEKVPVSKGQLKQYFYETKCNPMGYTKEGCRGIDKRHWNSQCRTTQSYVRALTMDSKKRIGWRFIRIDTSCVCTLTIKRGR
Bmax (specific binding with Hill slope, best-fit) (TrkB [4]): 7.546
h (Hill slope, best-fit) (TrkB [4]): 0.8134
Kd (TrkB [4]; read-out: Kd (specific binding with Hill slope, best-fit)): 1220 nM
Group mean (Mean 2; Control:Vehicle = 100), fig 4f (TrkB (WT) dimerization; BDNF 0.1ng/ml, Control (no LSD), n=8): 147.4
Group mean (Mean 2; Vehicle:Vehicle = 100), fig 4e (TrkB (WT) dimerization; [6]): 144.1
Group mean (Mean 2; Vehicle:Vehicle = 100), fig 4e (TrkB (WT) dimerization; with TrkB.FC): 103
binding by MST (eGFP-tagged TrkB (WT)): induces a shift in fluorescence
